Data reported in US20110263664A1, “Inhibitors of PIM-1 Protein Kinases, Compositions and Methods for Treating Prostate Cancer” (MUSC FOUNDATION FOR RESEARCH DEVELOPMENT, priority 2007, published 2011).
Read-outs that look alike come from different tables or passages of the source.

Legend:
PIM2 = PIM2 (Homo sapiens, UniProt Q9P1W9); experiment: Pim-2 kinase IC50, Table 2; assay type: biochemical
PIM1 [1] = molecular target: T1, PIM1 (Homo sapiens, UniProt P11309); experiment: Pim-1 protein kinase assay (Procedure 1), Table 1; assay type: biochemical; design: purchased Upstate 14-573
T1 sequence (P11309 whole entry): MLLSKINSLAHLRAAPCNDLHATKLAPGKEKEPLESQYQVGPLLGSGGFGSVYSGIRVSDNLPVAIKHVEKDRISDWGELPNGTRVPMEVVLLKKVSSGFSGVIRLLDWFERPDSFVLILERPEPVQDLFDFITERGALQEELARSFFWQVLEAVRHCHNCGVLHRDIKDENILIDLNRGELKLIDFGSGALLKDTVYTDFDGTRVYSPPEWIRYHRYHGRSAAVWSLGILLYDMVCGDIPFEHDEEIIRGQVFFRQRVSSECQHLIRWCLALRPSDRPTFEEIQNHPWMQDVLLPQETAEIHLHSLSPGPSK
Excerpt: The following in vitro procedure can be used to evaluate compounds for inhibition of Pim-1 protein kinase.

[2] = test system: Human prostate cancer PC3 cells; experiment: Cytotoxicity assay (MTS), PC3 cells, Table 3; assay type: cell-based; conditions: PC-3, 48 hours, read-out: IC50 (PC3 cell assay)
Method: Varying concentrations of the test compounds are then added to each well, and the plates were incubated for an additional 48 hours. The number of surviving cells was determined by the MTS assay (Promega). The percentage of cells killed was calculated as the percentage decrease in MTS metabolism compared with control cultures.

[3] = test system: 4E-BP1 phosphorylation in FDCP1 cells
[4] = test system: phosphoBad in FDCP1-Pim cells; experiment: PhosphoBad time course in FDCP1-Pim cells; assay type: cell-based, murine; conditions: 5 μM, serum and IL-3-free conditions, by 2 hours, compared to DMSO-treated cells
DU145 and MV7;11 cells = experiment: Cell cycle distribution by FACS; conditions: 5 μM for 72 hours; DU145 in 2% serum, MV7;11 in 10% serum; compared to DMSO control
[5] = test system: p27^Kip1 in K562, U937, and MV7;11 cells; experiment: p27Kip1 location in cytoplasmic and nuclear fractions; assay type: cell-based, human; conditions: 72 hours, media containing 10% FCS; all three cell lines
Method: To examine p27^Kip1 location, K562, U937 or MV7;11 cells (1×10^5/mL) were incubated for 72 hours in complete media with DMSO or a disclosed Pim-1 and/or Pim-2 inhibitor. Cells were harvested, washed in PBS and cytoplasmic and nuclear fractions were prepared using the NE-PER Nuclear and Cytoplasmic Extraction kit (Pierce Biotechnology, Rockford, Ill.) according to the manufacturer's instructions, followed by SDS-PAGE and western blotting with anti-p27^Kip1 antibody, as described above. To measure Cdk2 activity, this protein was immunoprecipitated from K562, U937, or MV7;11 cells treated for 72 hours with Pim inhibitors, lysed in buffer (50 mM Tris-HCl, pH 8.0 containing 5 mM EDTA, 150 mM NaCl, 1% NP-40 and 1 mM phenylmethylsulfonyl fluoride) followed by the addition of Cdk2 antibody (2 μg). Samples were then rotated overnight at 4° C., and Cdk2 was immunoprecipitated by the addition of protein G beads (Pierce Biotechnology) with rotation at room temperature for 1 h. […] Reactions were allowed to proceed for 15 minutes at 37° C., and then analyzed by SDS-PAGE. ^32P-Phosphorylated histone H1 was visualized by autoradiography, and Cdk2 protein levels detected by Western blotting, as described above.

MV7;11 and FDCP1 cells = experiment: Combined treatment with rapamycin, growth inhibition; assay type: cell-based
[6] = test system: PC-3 prostate cancer cell; experiment: PC-3 cell viability with or without rapamycin; assay type: cell-based, human; conditions: administered alone, doses of 1 and 3 μM, after 36 hours
Excerpt: FIG. 5 depicts the results of these experiments.

22Rv1-Pim cells = experiment: Apoptosis (sub G1, FACS) in 22Rv1-Pim cells; conditions: 5 μM, 72 hours, serum-free conditions
[7] = test system: PC3, DU145, LNCaP, U937, K582, and MV7;11 cell lines; experiment: Growth inhibition of cancer cell lines, 72 hours; assay type: cell-based, human; conditions: treatment for 72 hours in culture
AMPK protein kinase = experiment: Phosphorylation of AMPK on threonine 172
Excerpt: This phosphorylation is known to activate this protein kinase and lead to the phosphorylation of TSC2 and the inhibition of TOR protein kinase (Molecular Cell 30: 214-226, 2008; Oncogene 26: 1616-1625, 2007).

[8] = test system: Cdk2 activity in K562 cells; conditions: K562 cells treated 72 hours, 10% FCS; histone H1 as substrate
PIM1 [9] = molecular target: T1, PIM1; conditions: 5 μM, in vitro
PIM1 [10] = molecular target: T1, PIM1; experiment: biochemical
[11] = test system: phosphoBad in 22Rv1-Pim and DU145-Pim cells; experiment: PhosphoBad level by Western blotting in Pim-1 transfected prostate cancer cells; assay type: cell-based, human; conditions: 1 hour, serum-free conditions; total Bad constant

Sequence of PIM2 (Q9P1W9 whole entry): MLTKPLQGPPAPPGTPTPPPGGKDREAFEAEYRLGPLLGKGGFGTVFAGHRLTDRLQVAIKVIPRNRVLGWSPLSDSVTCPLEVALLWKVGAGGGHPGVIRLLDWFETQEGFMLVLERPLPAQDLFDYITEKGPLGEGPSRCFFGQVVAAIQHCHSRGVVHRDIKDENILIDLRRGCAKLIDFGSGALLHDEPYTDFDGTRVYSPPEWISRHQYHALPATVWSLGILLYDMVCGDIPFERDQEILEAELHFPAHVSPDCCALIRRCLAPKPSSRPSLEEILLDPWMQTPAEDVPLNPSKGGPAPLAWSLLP

| Structure (SMILES) | IC50 (PIM2) [nM] | IC50 (PIM1 [1]) [nM] | IC50 [2] [nM] | further results |
| --- | --- | --- | --- | --- |
| O=C1NC(=O)/C(=C/c2cccc(F)c2)S1 [Compound D1] | 400 ± 200 | 130 ± 60 |  |  |
| O=C1NC(=O)/C(=C/c2cccc(Cl)c2)S1 [Compound D2] | 400 ± 150 | 600 ± 510 |  |  |
| O=C1NC(=O)/C(=C/c2cccc(Br)c2)S1 [Compound D3] | 90 ± 40 | 45000 ± 11000 | 58000 ± 11000 |  |
| Cc1cccc(/C=C2\SC(=O)NC2=O)c1 [Compound D4] | 100 ± 100 | 160 ± 40 |  |  |
| O=C1NC(=O)/C(=C/c2cccc(C(F)(F)F)c2)S1 [Compound D5, 5-(3-trifluoromethylbenzylidene)thiazolidine-2,4-dione] | 100 ± 300 |  |  | concentration at which phosphorylation of 4E-BP1 was inhibited ([3]; 1 hour, absent rapamycin): 1.6 to 3.2 µM; effect on rapamycin inhibition of 4E-BP1 phosphorylation ([3]; with or without serum, combined with rapamycin): enhanced the ability of rapamycin to inhibit 4E-BP1 phosphorylation; phosphoBad levels [4]: reduction in phosphoBad levels; cell cycle arrest (DU145 and MV7;11 cells): significant G1 cell cycle arrest; amount of p27^Kip1 in nuclear fractions [5]: increase in the amount of p27^Kip1 in nuclear fractions; growth inhibition, combined treatment with rapamycin (MV7;11 and FDCP1 cells): significant growth inhibition; inhibition of cell viability [6]: 40%; sub G1 population (22Rv1-Pim cells): 38.1%; growth inhibition of cancer cell lines [7]: growth inhibition of each cell line; phosphorylation of AMPK on threonine 172 (AMPK protein kinase): increase the phosphorylation |
| COc1cccc(/C=C2\SC(=O)NC2=O)c1 [Compound D6] |  | 650 ± 50 | 73000 ± 13000 |  |
| O=C1NC(=O)/C(=C/c2cccc(OC(F)(F)F)c2)S1 [Compound D7] | 900 ± 400 | 67 ± 61 |  |  |
| O=C1NC(=O)/C(=C/c2cccc(OC(F)(F)C(F)F)c2)S1 [Compound D8] | 2200 ± 1100 | 73 ± 53 |  |  |
| O=C1NC(=O)/C(=C/c2ccc(F)cc2)S1 [Compound D9] | 2300 ± 100 |  | 93000 ± 5000 |  |
| CCCOc1ccc(/C=C2\SC(=O)NC2=O)cc1 [Compound D16, 5-(4-propoxybenzylidene)thiazolidine-2,4-dione] | 20 ± 10 | 150 ± 110 |  | decreased Cdk2 activity [8]: ~60%; cell cycle arrest (DU145 and MV7;11 cells): significant G1 cell cycle arrest; amount of p27^Kip1 in nuclear fractions [5]: increase in the amount of p27^Kip1 in nuclear fractions; growth inhibition, combined treatment with rapamycin (MV7;11 and FDCP1 cells; 72 hours, rapamycin 5 nM plus compound 5 μM, MV7;11 and FDCP1 cells): significant growth inhibition; phosphorylation of p27^Kip1 by Pim-1 (PIM1 [9]): reduce phosphorylation; IC50 (PIM1 [10]): 63 ± 11 nM; growth inhibition of cancer cell lines [7]: growth inhibition of each cell line; phosphorylation of AMPK on threonine 172 (AMPK protein kinase): increase the phosphorylation; level of phosphoBad [11]: decreased in a dose-dependent manner |
| COc1cccc(/C=C2/C(=O)NC(=O)N2Cc2ccccc2)c1 [Compound D32] |  |  | 80000 ± 15000 |  |

The next lines start with results.

| IC50 (PIM2) [nM] | IC50 (PIM1 [1]) [nM] | Structure (SMILES) | IC50 [2] [nM] | further results |
| --- | --- | --- | --- | --- |
| 200 ± 100 | 40 ± 30 | O=C1NC(=O)/C(=C/c2ccc(Cl)cc2)S1 [Compound D10] |  |  |
|  | 28000 ± 23000 | O=C1NC(=O)/C(=C/c2ccc(Br)cc2)S1 [Compound D11] |  |  |
| 4400 ± 200 |  | Cc1ccc(/C=C2\SC(=O)NC2=O)cc1 [Compound D12] | > 100000 |  |
| 300 ± 100 | 600 ± 100 | CCc1ccc(/C=C2\SC(=O)NC2=O)cc1 [Compound D13] |  |  |
| 300 ± 100 | 5100 ± 5000 | COc1ccc(/C=C2\SC(=O)NC2=O)cc1 [Compound D14] | 11000 ± 1000 |  |
| 43000 ± 18000 | 170 ± 40 | CCOc1ccc(/C=C2\SC(=O)NC2=O)cc1 [Compound D15] | 65000 ± 17000 |  |
| > 100000 | 40 ± 30 | CC(C)c1ccc(/C=C2\SC(=O)NC2=O)cc1 [Compound D17] |  |  |
| 80 ± 20 | 330 ± 130 | O=C1NC(=O)/C(=C/c2ccc(C(F)(F)F)cc2)S1 [Compound D18] |  |  |
| 500 ± 200 |  | O=C1NC(=O)/C(=C/c2ccc(OC(F)(F)F)cc2)S1 [Compound D19] | 48000 ± 27000 |  |
| 100 ± 100 | 6000 ± 1700 | CN(C)c1ccc(/C=C2\SC(=O)NC2=O)cc1 [Compound D20] | 66000 ± 13000 |  |
|  | 45000 ± 15000 | O=C1S/C(=C\c2ccc(F)cc2)C(=O)N1Cc1ccccc1F [Compound D27] | > 100000 |  |
|  | 58000 ± 7500 | O=C1NC(=O)N(Cc2ccccc2)/C1=C\c1ccc(Br)cc1 [Compound D30] |  |  |
|  | 78000 ± 7500 | CN(C)c1ccc(/C=C2/C(=O)NC(=O)N2Cc2ccccc2)cc1 [Compound D31] |  |  |
